Laboratory results published in publication PMC3743553 (Journal of child neurology, 2012).

Legend:
[1] = system: histones H3 and H4 within intron 1 of FXN; conditions: chromatin immunoprecipitation; cited from earlier work
FXN messenger RNA [2] = conditions: cited from earlier work; for effects on FXN messenger RNA levels: Friedreich ataxia cells
HDAC3 = conditions: recombinant enzymes; cited from earlier work
[3] = system: global acetylation of histone H3; conditions: Friedreich ataxia lymphoblast cell line; cited from earlier work
class II HDACs = conditions: panel of recombinant human enzymes expressed in baculovirus; cited from earlier work
[4] = system: histone deacetylase enzyme 2; conditions: relative to histone deacetylase enzymes 1 and 3; cited from earlier work
FXN messenger RNA [5] = assay: FXN messenger RNA by qRT-PCR in peripheral blood mononuclear cells; format: cell-based, human; conditions: 10 μM, 48 hours
[6] = system: class I histone deacetylase enzymes; conditions: 106: histone deacetylase enzymes 1 and 3; cited from earlier work
frataxin protein = conditions: Friedreich ataxia lymphoblast cell line; cited from earlier work
YG8R mouse = conditions: cited from earlier work
[7] = system: histone deacetylase enzyme 8; conditions: relative to histone deacetylase enzymes 1 and 3; cited from earlier work
FXN messenger RNA [8] = assay: FXN messenger RNA by qRT-PCR in Friedreich ataxia lymphoid cells; format: cell-based, human; conditions: 10 μM compound, qRT-PCR of FXN messenger RNA
[9] = system: KIKI (FXN 230GAA/230GAA) mouse; conditions: KIKI mice; cited from earlier work
[10] = pH = 2 and 50 °C; cited from earlier work

SMILES: Nc1ccccc1NC(=O)CCCCCC(=O)Nc1ccccc1 [4b]
- histone acetylation on FXN (H3-K14, H4-K5, H4-K12 within intron 1) [1]: increases acetylation

SMILES: Nc1ccccc1NC(=O)CCCCCCC(=O)Nc1ccccc1 [BML-210]
- repression of FXN in lymphoid cell lines derived from patients with Friedreich ataxia (FXN messenger RNA [2]): relieve repression

SMILES: Cc1ccc(NC(=O)CCCCCC(=O)Nc2ccccc2N)cc1 [compound 106]
- preference for histone deacetylase enzyme 3 over histone deacetylase enzyme 1 (HDAC3): ~10 fold
- acetylated histones after washing cells free of the compounds [3]: persists for several hours
- activity against class II histone deacetylases (class II HDACs): little or no activity
- activity against histone deacetylase enzyme 2 [4]: much lower activity
- FXN messenger RNA, cells from patients with Friedreich ataxia (FXN messenger RNA [5]; peripheral blood mononuclear cells from affected individuals): significant increases
- FXN messenger RNA, wild-type alleles in cells from unaffected individuals (FXN messenger RNA [5]; peripheral blood mononuclear cells from unaffected individuals): only a very small effect
- mechanism of inhibition [6]: slow-on/slow-off
- induction of frataxin protein (frataxin protein): potent inducer
- global histone H3 and H4 acetylation of brain tissue (YG8R mouse): increased
- toxicity during 5 months of treatment (YG8R mouse): no overt toxicity
- motor coordination (YG8R mouse; long-term treatment): improvement
- activity against histone deacetylase enzyme 8 [7]: much lower activity
- FXN transcription (FXN messenger RNA [8]): Highly active
- frataxin levels in the nervous system and heart [9]: restored
- histone H3 and H4 acetylation in chromatin near the GAA•TTC repeat [9]: increased

SMILES: Cc1ccc(C(=O)NCCCCCC(=O)Nc2ccccc2N)cc1 [compound 109]
- t1/2 in acidic conditions [10]: 6 h
- toxicity during 5 months of treatment (YG8R mouse): no overt toxicity

SMILES: O=C(CCCCCCC(=O)Nc1ccccc1)NO [suberoylanilide hydroxamic acid]
- acetylated histones after washing cells free of the compounds [3]: rapidly lost
- histone acetylation on FXN (H3-K14, H4-K5, H4-K12 within intron 1) [1]: no effect
- effects on FXN messenger RNA levels (FXN messenger RNA [2]): no effects
- activator of FXN transcription in Friedreich ataxia cells (FXN messenger RNA [2]; at subcytotoxic concentrations): inactive
- induction of frataxin protein (frataxin protein): no such activity

SMILES: CC(/C=C/C(=O)NO)=C\[C@@H](C)C(=O)c1ccc(N(C)C)cc1 [trichostatin A]
- histone acetylation on FXN (H3-K14, H4-K5, H4-K12 within intron 1) [1]: no effect
- effects on FXN messenger RNA levels (FXN messenger RNA [2]): no effects
- mechanism of inhibition [6]: rapid-on/rapid-off, classical competitive inhibitors
